{"source": "patent US11246907B2", "about": "“Immunosuppressive agents and their use in therapy” (Norwegian University of Science and Technology, priority 2013, dated 2022)", "key": {"JJN-3 cells": {"test_system": "JJN-3 cells", "test": "Cell survival (MTT) assay, multiple myeloma cell line JJN-3", "assay_type": "cell-based", "conditions": "6 μM ATX-101 with 5 μM LY294002 or 10 μM SB20358", "procedure": "Phosphorylated kinase levels were corrected for loading differences (β-tubulin) and normalized to untreated control cells. Data is from three independent experiments (mean±SD).\nThe multiple myeloma cell lines JJN-3 (gift from J. Ball, University of Birmingham, United Kingdom) were grown in RPMI 1640 (Sigma-Aldrich, Schnelldorf, Germany) supplemented with 10% FCS, 2 mM glutamine (Sigma-Aldrich), 2.5 μg/ml amphotericin B (Sigma-Aldrich) and 100 μg/ml gentamicin (Invitrogen, Carlsbad, Calif., USA). HaCaT cells (spontaneously transformed keratinocytes) were cultured in DMEM (Sigma-Aldrich) containing FCS, glutamine, amphotericin B, and gentamicin. All cells were cultured at 37° C. in a humidified atmosphere of 5% CO2.\nCells were seeded into 96-well plates and ATX-101, kinase inhibitors (SB203580 and BIRB0796), and polyIC were added alone or in combination at the indicated concentrations. Cells were exposed continuously and harvested every day for the next four days using the MTT (3-(4.5-Dimethylthiazol-2-yl)-2.5 diphenyl-tetrazolium bromide) assay (Gilljam et al., 2009, supra). The average from at least 4 wells was used to calculate cell survival."}, "[1]": {"test_system": "Akt Ser473 phosphorylation", "test": "Western blot of Akt Ser473 phosphorylation in peripheral blood monocytes", "assay_type": "cell-based, human", "conditions": "4 μM ATX-101, 4 h", "procedure": "Data is from one representative donor out of three; and (B-E) show multiplex analysis of cytokine levels produced by peripheral blood monocytes stimulated with 10 ng/ml LPS (B and D, same donor) and 40 μg/ml polyIC (C and E, same donor) after 4 h. (B and C) Stimulated-monocytes were treated with 4 μM ATX-101, 10 μM SB203580 (p38 MAPK inhibitor), and combination of ATX-101 and SB203580. (D and E) Stimulated-monocytes were treated with 4 μM ATX-101, 5 and 10 μM LY294002 (PI3K class I inhibitor), and combination of ATX-101 and LY294002. Measured cytokine levels were normalized to cytokine levels from monocytes stimulated with TLR ligand alone. A two fold or higher increase in cytokine level after TLR stimulation was defined as cytokine induction. # Value is too low to be visible in the column diagram; ? cytokine measurement was out of range. Data is from representative experiments out of two.\nMononucleated cells were seeded and stimulated as described above. JJN-3 cells were treated with ATX-101 (6 μM) for 4 h. HaCaT cells were treated with ATX-101 (12 μM), polylC (2 μg/ml), and LPS (100 ng/ml) for 4 h. […] The proteins were visualized with the Odyssey infrared imaging system (LI-COR) and quantified using Odyssey Image Studio V2. […]"}, "normal cells": {"test_system": "normal cells", "conditions": "4 μM dose; cited from earlier work"}}, "note": "Ends that are not written are not given here.", "data": [{"substance": "Ac-MDRWLVKWKKKRKIRRRRRRRRRRR [ATX-101]", "values": [{"measurement": "growth-inhibitory effect of kinase inhibitors in combination with ATX-101 (cell growth, MTT)", "setting": "JJN-3 cells", "result": "increased the growth-inhibitory effect of p38 MAPK and class I PI3K inhibitors"}, {"measurement": "LPS- and polyIC-induced and basal Akt phosphorylation", "setting": "[1]", "result": "reduced"}, {"measurement": "toxicity on normal cells in BMCS assays", "setting": "normal cells", "result": "low toxicity"}]}]}
